Results as given in patent US20070258899A1, “Diagnostic and therapeutic agents” (KARYON-CTT LTD, priority 2006, published 2007).
Starred links: 1 amine or outer side, 2 acyl side, 3 side chain; linkers in the order of their positions; H or OH if unused. Positions of bridges follow the written chain, without caps; N, C: chain ends. Non-standard residues stand in square brackets, D forms with d. Residues, ends and D or L forms follow the SMILES beside them. No end group written: not given here. Cysteamide = C(CS[*:3])N[*:1]; AEEEA = NCCOCCOCCOCC(=O)O

Tests used:
[1] = tested on: LoVo cell line; experiment: Cytotoxicity assay (MTT); format: cell-based, human
Description: […] The measurement of cell viability was done with MTT (Thiazolyl blue, Sigma M-5655) tetrazolium salt. MTT is cleaved to water-insoluble formazan dye by the “succinate-tetrazolium reductase” system, which is active only in viable cells. After formazan was solubilized by 10% SDS-0.01 M HCl, it was quantified in an ELISA spectrometer (ThermoLabsystems Multiscan EX) at 560 nm. CuSAO2 [trans-bis(salicylaldoximato)copper(II)] 7.5 μg/ml was used as a positive control for 100% toxicity.
Procedure. Cells were trypsinized from the cell culture dish (ø9 cm) with 1 ml of TE for 1-5 minutes and moved to a 50 ml Falcon tube. After this the volume was increased to 20 ml of cell line specific medium and cells were transferred to a Bürker chamber and diluted in medium to a concentration of 2500-3500 cells/100 μl depending on cell line. […]
Next day 40 μl of medium was removed from all wells except from the ones with only medium and one column with cells. […] The next day the cell morphology was analyzed with a microscope. […]
The next day, the MTT assay described above was performed. The viable count (v.c.) was calculated as: [formula]

[2] = tested on: Athymic nude mice; experiment: In vivo toxicity study; details: 1 mg i.v. into tail vein; observed 30 min after injection and 15 min on the following day
Description: 1 mg of targeting unit HP203 (described in Example 2) was injected i.v. into the tail vein of three Athymic nude mice in a volume of 100 μl of sterile physiological saline. The behavior of mice was observed during 30 min right after injection and during 15 min on the following day (comparison to non-injected mouse).

[3] = tested on: HCT-15 cell line; experiment: Cell binding assay to immobilized targeting agents; format: cell-based, human; details: wells coated at 30 μg/ml, 75000 cells, 30 minutes at 37° C., MTT detection
Description: The human colorectal cancer HCT-15 cell line (ATCC: CCL-225), called herein also “HCT-15”, was cultured in RPMI 1640 medium with 2 mM L-glutamine adjusted to contain 1.5 g/L sodium bicarbonate, 4.5 g/L glucose, 10 mM HEPES, and 1.0 mM sodium pyruvate, 1% penicillin/streptomycin, 10% fetal bovine serum.
(§1) Preparation of plates for assays. Wells of Reacti-Bind Maleimide activated clear strip plate (Pierce, Prod#. 15150) were coated with targeting agents of this invention at a concentration of 30 μg/ml. The incubation was carried out of overnight at 20° C. The binding buffer containing unbound peptide was removed from the wells.
(§2) The wells were blocked with blocking buffer (0.5% BSA, 0.05% Tween20 in phosphate buffer saline (PBS). PBS was prepared as follows: 40 g of NaCl, 1 g of KCl, 7 g of Na2HPO4×2H2O and 1 g of KH2PO4 were dissolved in 1000 ml of deionized H2O. Blank wells as controls were prepared by treating empty wells with blocking buffer. The plates were incubated 1 hour 30 min at 20° C. After incubation the plate was washed three times with PBS, pH 7.4.
(§3) Cell binding assay. 75000 cells in volume of 150 μl of medium were added into coated wells and were incubated for 30 minutes at 37° C. After cell binding, the wells were washed with PBS for 30 minutes. […] On following day the absorbance of plate was measured at 560 nm with ELISA-reader (ThermoLabsystems, Multiskan EX). […]

[4] = tested on: HCT-15-LM1 cell line; experiment: Cell binding assay to immobilized targeting agents; format: cell-based, human; details: wells coated at 30 μg/ml, 75000 cells, 30 minutes at 37° C., MTT detection
Source text: The colorectal cancer cell line HCT-15-LM1 was developed as follows. The cell culture was started with cancer cells from lung metastases which had developed after injection of human colorectal cancer HCT-15 cells into the bloodstream of a mouse. The inoculation procedure was then repeated with HCT-15-LM1 cells leading to the establishment of another metastatic cell line, HCT-15-LM2.
as §1, §2
Cell binding assay. 75000 cells in volume of 150 μl of medium were added into coated wells and were incubated for 30 minutes at 37° C. […] On following day the absorbance of plate was measured at 560 nm with ELISA-reader (ThermoLabsystems, Multiskan EX). […]

[5] = tested on: C8161T melanoma cell line; experiment: Cell binding assay to immobilized targeting agents; format: cell-based, human; details: wells coated at 30 μg/ml, 75000 cells, 30 minutes at 37° C., MTT detection
Description: The human melanoma cell line C8161 has been described previously by Welch et al. in Int. J. Cancer, 1991, 47: 227-237. A more metastatic cell line C8161T, called herein also “C8161T”, was developed by culturing cells from a subcutaneous melanoma tumor developed after inoculation of C8161 melanoma cells on the flank of a nude mouse. The cell line was cultured in DMEM medium adjusted to contain 2 mM L-glutamine, 1% penicillin/streptomycin, and 10% fetal bovine serum.
as §1, §2
Cell binding assay. […] On following day the absorbance of plate was measured at 560 nm with ELISA-reader (ThermoLabsystems, Multiskan EX). […]

[6] = tested on: murine endothelial cell line SVEC4-10; experiment: Cell binding assay to immobilized targeting agents (control cell line); format: cell-based, mouse; details: control cell line SVEC4-10; wells coated at 30 μg/ml; 75000 cells, 30 minutes at 37° C.; MTT detection
Description: The mouse vascular endothelial cell line SVEC4-10, called herein also “SVEC4-10”, has been described previously by O'Connell et al. in J. Immunol., 1990, 144: 521-525. The cell line was cultured in DMEM medium adjusted to contain 2 mM L-glutamine, 1% penicillin/streptomycin, and 10% fetal bovine serum.
as §1, §2, §3

[7] = tested on: mouse fibroblast cell line NIH3T3; experiment: as above; format: cell-based; details: wells coated at 30 μg/ml, 75000 cells, 30 minutes at 37° C., MTT detection
Description: The mouse fibroblast line NIH3T3, called herein also “NIH3T3”, has been described previously by Koga et al. in Gann, 1979, 70: 585-591. The cell line was cultured in DMEM medium adjusted to contain 2 mM L-glutamine, 1% penicillin/streptomycin, and 10% fetal bovine serum.
as §1, §2, §3

[8] = tested on: HSC-3 oral cancer cell line; experiment: Cell binding assay to immobilized targeting agents; format: cell-based, human; details: wells coated at 30 μg/ml, 75000 cells, 30 minutes at 37° C., MTT detection
Description: The human oral squamous cell carcinoma line HSC-3, called herein “HSC-3” (JCRB Cell Bank 0623, National Institute of Health Sciences, Japan) was cultivated in 1:1 DMEM and Ham's F 12 medium containing 10% FBS, 1% penicillin/streptomycin, L-glutamate and sodium pyruvate and 0.4 ng/ml hydrocortisone.
as §1, §2, §3

[9] = tested on: lung metastases of colorectal cancer patients; experiment: Bio-panning of phage display library on clinical tumor samples; format: binding, human; details: phage-displayed CX7C library; ex vivo panning round three
Source text: Phage display library. Standard procedures according to Smith and Scott (ibid.) were used. Phage display library used for screening of clinical samples was cloned in fUSE5 vector and was of the cyclic structure CX7C. The E. coli strain K91kan was used as host for phage amplification.
Phage display on clinical tumor samples. Tissue samples were surgically removed from lung metastases of colorectal cancer patients. Part of the sample was taken for pathological examination, rest was placed in ice cold DMEM-PI (Dulbecco's medium containing protease inhibitors PI; 10 mM PMSF (Phenyl-methyl-sulphonyl-fluoride), Aprotinin (10 mg/ml) Leupeptin (10 mg/ml)). Tissue samples were minced with a razor blade in a small cell culture plate in 1 ml of DMEM containing protease inhibitors. The samples were transferred to an eppendorf tube and washed with 1 ml DMEM-PI.
Samples were centrifuged at 5000 rpm for 4 min and were then incubated with […] transducing units of phage in 1 ml DMEM-PI at 25° C. for 15 min.
1 ml K91kan bacteria, OD600: 1-1.5, in LB containing 100 μg/ml kanamycin (kan) were infected with the washed pellet containing selectively attached phage particles at 25° C. for 25 min. […]
Then the bacteria were pelleted at 5000 rpm for 15 min. […] For the next rounds of bio-panning of clinical samples the titre of the TBS phage stock was determined as described above. […]

Row | Compound | binding of cells to immobilized targeting agent (absorbance at 560 nm) [3] | binding of cells to immobilized targeting agent (absorbance at 560 nm) [4] | binding of cells to immobilized targeting agent (absorbance at 560 nm) [5] | binding of cells to immobilized targeting agent (absorbance at 560 nm) [6] | binding of cells to immobilized targeting agent (absorbance at 560 nm) [7] | binding of cells to immobilized targeting agent (absorbance at 560 nm) [8] | Peptides selectively binding to lung tumors (enriched in bio-panning) [9] | also measured
1 | [Cu+2].[O-]c1ccccc1C=NO.[O-]c1ccccc1C=NO [CuSAO2, trans-bis(salicylaldoximato)copper(II), reference compound] | – | – | – | – | – | – | – | cell killing ([1]; 7.5 μg/ml, positive control): 100%
2 | CC(C)C[C@@H]1NC(=O)[C@H](Cc2ccccc2)NC(=O)CNC(=O)[C@H](Cc2ccc(O)cc2)NC(=O)[C@@H](NC(=O)[C@H](C)NC(=O)CNC(=O)[C@H](CC(=O)O)NC(=O)[C@H](C)N)CSSC[C@@H](C(=O)NCCOCCOCCOCC(=O)NCCOCCOCCOCC(=O)NCCOCCOCCOCC(N)=O)NC(=O)[C@H](CCC(N)=O)NC(=O)CNC(=O)[C@H](Cc2c[nH]c3ccccc23)NC1=O [HP203] (H-ADGACYGFLWGQC[AEEEA][AEEEA][AEEEA]-NH2; disulfide 5-13; N-terminus assumed) | – | – | – | – | – | – | – | toxicity for the tested cell line (viable count, MTT) ([1]; 5 μg/ml and 138 μg/ml, 24 h, 48 h, 72 h): non-toxic; toxic effect on mice (behavior observed) [2]: did not have any toxic effect
3 | Ac-aYGFVWGEE-(Teg-Glu)2-EAT [MJ012] | bind selectively | bind selectively | bind selectively | significantly less binding | significantly less binding | bind selectively | – | –
4 | CYGFLWGQC | – | – | – | – | – | – | selectively binding | –
5 | CYGFVWGEC (disulfide 1-9 (inferred)) | – | – | – | – | – | – | selectively binding | –
6 | a*YGFVWGEE*-(Teg-Glu)2-EAT ([dA]YGFVWGEE[AEEEA]E[AEEEA]E-Cysteamide; lactam N-9; not fully specified; printed as a*YGFVWGEE*-(Teg-Glu)2-EAT) [MJ013] | bind selectively | bind selectively | bind selectively | significantly less binding | significantly less binding | bind selectively | – | –
